What was measured:
BTK = biological target: T1, BTK (Homo sapiens, UniProt Q06187); test: BTK tyrosine kinase assay; format: biochemical; conditions: 1 hour exposure
T1 construct: made in house; host or cells: Sf21 insect cells (baculovirus)
Experimental: Sf21 (IPLB-SF21-AE) cells derived from the ovarian tissue of the fall armyworm Spodotera frugiperda, were obtained from Invitrogen and maintained at 26-28° C. in Grace's insect cell medium supplemented with 10% FBS and 1.0% antibiotic/antimycotic (GIBCO-BRL). Stock cells were maintained in suspension at 0.2-1.6×10^6/ml in 600 ml total culture volume in 1 L Bellco spinner flasks at 60-90 rpm. Cell viability was maintained at 95-100% as determined by trypan blue dye exclusion.
Sf21 cells were infected with a baculovirus expression vector for BTK or SYK, as previously described (refs 18 and 19). […]
Following electrophoresis, kinase gels were dried onto Whatman 3M filter paper and subjected to phosphoimaging on a Molecular Imager (Bio-Rad, Hercules, Calif.) as well as autoradiography on film. […] For each drug concentration, a BTK or SYK kinase activity index was determined by comparing the ratios of the kinase activity in phosphorimager units (PIU) and density of the protein bands in densitometric scanning units (DSU) to those of the baseline sample and using the formula: Activity Index=[PIU of kinase band/DSU of BTK/SYK protein band]test sample: [PIU of kinase band/DSU of BTK/SYK protein band]baseline control sample.

RBL-2H3 mast cells = test: IgE/antigen induced calcium mobilization in mast cells (fluo-3 imaging); format: cell-based, rat; conditions: 30 μM, 20 minutes prior to stimulation with 20 ng/ml DNP-BSA; FIG. 2A
Experimental: To study the effects of compound D-58, RBL-2H3 cells were incubated with compound D-58 at the indicated concentrations or vehicle for 1 hour prior to antigen challenge. Mast cell degranulation (β-hexosaminidase release, % of total) was assessed by measuring the β-hexosaminidase levels in cell free supernatants and Triton X-100 solubilized pellets using the formula: β-hexosaminidase release, % of total=100×(β-hexosaminidase level in supernatant/β-hexosaminidase level in supernatant+solubilized pellet). LTC4 levels in cell free supernatants of mast cells were estimated using standard procedures (ref 24). […]
The results are shown in FIGS. 2A-B. IgE/antigen stimulation of RBL-2H3 mast cells activates a cascade of signal transduction events, which includes tyrosine phosphorylation of several proteins and SYK/BTK-mediated activation of phospholipase C, which generates second messengers inositol 1,4,5-triphosphate (IP3) and 1,2-diacylglycerol (DAG) (ref 7). […] IgE sensitized and Ca^2+ indicator fluo-3/AM loaded RBL-2H3 cells were stimulated with 20 ng/ml antigen (DNP-BSA) in presence of 1 mM calcium chloride and the fluorescence intensity, reflecting the calcium ion concentration was measured. […]
The fluorescent Ca^2+ indicator, fluo-3/AM (Molecular Probes) was used to detect Ca^2+ mobilizations in individual cells (ref 25). […] The background fluorescence was subtracted from each image.

RBL-2H3 cells = test: Mast cell viability by trypan blue dye exclusion; format: cell-based, rat; conditions: 300 μM, 2 hour treatment at 37° C.
Text: The viability of compound D-58-treated mast cells ranged from 91 to 92%. […] Stimulation of RBL-2H3 mast cells using IgE/antigen as a stimulus induced the release of significant amounts of preformed granule-associated β-hexosaminidase (47.2±7.9% of total cellular content) as well as newly synthesized LTC4 (5.8±1.8 pg/10^6 cells).

T1 sequence (Q06187 whole entry, species assumed): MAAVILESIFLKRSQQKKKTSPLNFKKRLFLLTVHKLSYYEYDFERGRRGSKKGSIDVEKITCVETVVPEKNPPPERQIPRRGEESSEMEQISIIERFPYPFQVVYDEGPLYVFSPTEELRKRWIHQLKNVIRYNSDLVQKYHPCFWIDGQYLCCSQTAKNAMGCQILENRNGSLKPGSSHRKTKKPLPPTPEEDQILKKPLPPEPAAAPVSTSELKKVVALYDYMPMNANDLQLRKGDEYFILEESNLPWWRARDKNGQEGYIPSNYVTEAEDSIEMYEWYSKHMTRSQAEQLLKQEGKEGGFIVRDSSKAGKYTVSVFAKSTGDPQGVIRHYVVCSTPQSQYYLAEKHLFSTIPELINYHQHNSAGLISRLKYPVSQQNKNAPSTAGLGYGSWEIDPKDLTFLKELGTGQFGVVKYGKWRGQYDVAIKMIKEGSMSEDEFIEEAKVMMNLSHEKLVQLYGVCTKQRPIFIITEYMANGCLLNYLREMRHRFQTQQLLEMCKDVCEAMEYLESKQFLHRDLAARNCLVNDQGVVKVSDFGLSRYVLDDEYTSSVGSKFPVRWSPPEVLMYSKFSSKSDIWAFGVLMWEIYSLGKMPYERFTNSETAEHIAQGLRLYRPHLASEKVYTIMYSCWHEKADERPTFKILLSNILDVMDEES

In the case of COc1ccc(CC(=O)c2c(O)cc(O)cc2O)cc1 [Compound D-58], the IC50 (BTK; first experiment, FIG. 1A) is reported as 18.6 µM, the IC50 (BTK; second experiment, FIG. 1C) is reported as 35.5 µM and the “IgE/antigen induced calcium response” value (RBL-2H3 mast cells) is reported as “abrogation of calcium mobilization”. For the same compound, the “effect on viability of RBL-2H3 cells” value (RBL-2H3 cells) was “did not affect the viability”.

— patent publication US6391921B1 (priority 2000, dated 2002)
